In patent publication US11414379B2, “SPAK kinase inhibitors as neuroprotective agents” (United States Government as represented by the Department …, priority 2018, dated 2022):

Tests used:
Test in all cases: Kinase panel (Dundee profiling)
Assay type in all cases: biochemical
PLK1 = PLK1 (Homo sapiens, UniProt P53350); settings: read-out: % residual kinase activity
Method: (§1) The kinase selectivity of ZT-1a was further assessed using standard radioisotopic enzymatic assays against a panel of 140 recombinant kinases (Dundee profiling, Table 2) (Bain et al. (2007) The Biochemical journal 408, 297-315). ZT-1a at a concentration of 10 μM inhibited only MAPKAP-K2 activity 85±7% compared to DMSO control, representing high kinase selectivity.
(§2) Referring to Table 2, ZT-1a was tested at 10 and 1 μM against a panel of 140 recombinant kinases in an enzymatic activity-based assay performed by the International Centre for Kinase Profiling in the MRC Protein Phosphorylation and Ubiquitylation Unit. Values represent % residual kinase activity (mean+/−SEM, n=3). Kinases labelled with an asterick* are inhibited ≥50% by ZT-1a.

JNK3 = JNK3 (Homo sapiens, UniProt P53779); settings: read-out: % residual kinase activity
Method: as §1, §2

PAK6 = PAK6 (Homo sapiens, UniProt Q9NQU5); settings: read-out: % residual kinase activity
Method: as §1, §2

BRK = BRK (Homo sapiens, UniProt Q13882); settings: read-out: % residual kinase activity
Method: as §1, §2

GCK = GCK (Homo sapiens, UniProt Q12851); settings: read-out: % residual kinase activity
Method: as §1, §2

p38g MAPK = p38g MAPK (Homo sapiens, UniProt P53778); settings: read-out: % residual kinase activity
Method: as §1, §2

ROCK2 = ROCK2 (Rattus norvegicus, UniProt Q62868); settings: read-out: % residual kinase activity
Method: as §1, §2

SGK1 = SGK1 (Homo sapiens, UniProt O00141); settings: read-out: % residual kinase activity
Method: as §1, §2

GSK3b = GSK3b (Homo sapiens, UniProt P49841); settings: read-out: % residual kinase activity
Method: as §1, §2

ERK8 = ERK8 (Homo sapiens, UniProt Q8TD08); settings: read-out: % residual kinase activity
Method: as §1, §2

PKCa = PKCa (Homo sapiens, UniProt P17252); settings: read-out: % residual kinase activity
Method: as §1, §2

PKCγ = PKCγ (Homo sapiens, UniProt P05129); settings: read-out: % residual kinase activity
Method: as §1, §2

HIPK3 = HIPK3 (Homo sapiens, UniProt Q9H422); settings: read-out: % residual kinase activity
Method: as §1, §2

NUAK1 = NUAK1 (Homo sapiens, UniProt O60285); settings: read-out: % residual kinase activity
Method: as §1, §2

MST4 = MST4 (Homo sapiens, UniProt Q9P289); settings: read-out: % residual kinase activity
Method: as §1, §2

STK33 = STK33 (Homo sapiens, UniProt Q9BYT3); settings: read-out: % residual kinase activity
Method: as §1, §2

MSK1 = MSK1 (Homo sapiens, UniProt O75582); settings: read-out: % residual kinase activity
Method: as §1, §2

MLK3 = MLK3 (Homo sapiens, UniProt Q16584); settings: read-out: % residual kinase activity
Method: as §1, §2

TTK = TTK (Homo sapiens, UniProt P33981); settings: read-out: % residual kinase activity
Method: as §1, §2

PIM3 = PIM3 (Homo sapiens, UniProt Q86V86); settings: read-out: % residual kinase activity
Method: as §1, §2

EF2K = EF2K (Homo sapiens, UniProt O00418); settings: read-out: % residual kinase activity
Method: as §1, §2

PAK2 = PAK2 (Homo sapiens, UniProt Q13177); settings: read-out: % residual kinase activity
Method: as §1, §2

MAP4K3 = MAP4K3 (Homo sapiens, UniProt Q8IVH8); settings: read-out: % residual kinase activity
Method: as §1, §2

MAPKAP-K2 = MAPKAP-K2 (Homo sapiens, UniProt P49137)
Method: as §1, §2

MKK2 = MKK2 (Homo sapiens, UniProt P36507); settings: read-out: % residual kinase activity
Method: as §1, §2

EPH-B4 = EPH-B4 (Homo sapiens, UniProt P54760); settings: read-out: % residual kinase activity
Method: as §1, §2

MKK6 = MKK6 (Homo sapiens, UniProt P52564); settings: read-out: % residual kinase activity
Method: as §1, §2

IR = IR (Homo sapiens, UniProt P06213); settings: read-out: % residual kinase activity
Method: as §1, §2

EPH-A2 = EPH-A2 (Homo sapiens, UniProt P29317); settings: read-out: % residual kinase activity
Method: as §1, §2

TSSK1 = TSSK1 (Homo sapiens, UniProt Q9BXA7); settings: read-out: % residual kinase activity
Method: as §1, §2

YES1 = YES1 (Homo sapiens, UniProt P07947); settings: read-out: % residual kinase activity
Method: as §1, §2

Chain of MAPKAP-K2 (P49137 whole entry, species assumed): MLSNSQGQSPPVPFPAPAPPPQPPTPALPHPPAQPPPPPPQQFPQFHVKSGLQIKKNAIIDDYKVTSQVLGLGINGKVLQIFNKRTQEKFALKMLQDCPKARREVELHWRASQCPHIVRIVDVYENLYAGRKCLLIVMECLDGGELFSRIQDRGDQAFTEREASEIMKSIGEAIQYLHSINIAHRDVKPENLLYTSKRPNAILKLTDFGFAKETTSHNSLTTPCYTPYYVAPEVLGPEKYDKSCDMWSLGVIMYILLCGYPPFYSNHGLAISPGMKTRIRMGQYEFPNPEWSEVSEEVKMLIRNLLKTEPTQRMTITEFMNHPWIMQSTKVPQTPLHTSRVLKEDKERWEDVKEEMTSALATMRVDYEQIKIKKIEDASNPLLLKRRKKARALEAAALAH
Chain of GCK (Q12851 whole entry): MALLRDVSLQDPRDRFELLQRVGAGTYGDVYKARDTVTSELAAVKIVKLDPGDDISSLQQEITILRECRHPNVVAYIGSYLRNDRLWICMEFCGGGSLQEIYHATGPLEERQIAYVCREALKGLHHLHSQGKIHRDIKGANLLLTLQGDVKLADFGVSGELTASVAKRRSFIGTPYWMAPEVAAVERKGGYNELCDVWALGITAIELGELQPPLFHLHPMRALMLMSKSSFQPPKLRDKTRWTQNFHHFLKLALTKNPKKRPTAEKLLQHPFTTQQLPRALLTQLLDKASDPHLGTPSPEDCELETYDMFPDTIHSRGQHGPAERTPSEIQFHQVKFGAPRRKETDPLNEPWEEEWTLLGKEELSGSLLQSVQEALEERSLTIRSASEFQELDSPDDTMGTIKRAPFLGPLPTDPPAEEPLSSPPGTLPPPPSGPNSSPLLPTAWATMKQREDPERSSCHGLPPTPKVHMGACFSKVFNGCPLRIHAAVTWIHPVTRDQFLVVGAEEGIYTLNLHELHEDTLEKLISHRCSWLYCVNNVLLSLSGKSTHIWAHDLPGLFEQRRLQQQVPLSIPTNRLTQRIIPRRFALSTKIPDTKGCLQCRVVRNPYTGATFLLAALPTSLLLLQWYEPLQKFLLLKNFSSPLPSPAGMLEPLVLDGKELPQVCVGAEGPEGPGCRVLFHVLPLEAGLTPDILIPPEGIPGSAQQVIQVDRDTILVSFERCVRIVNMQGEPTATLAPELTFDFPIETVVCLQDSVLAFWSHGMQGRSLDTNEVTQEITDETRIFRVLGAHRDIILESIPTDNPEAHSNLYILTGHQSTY
Chain of SGK1 (O00141 whole entry, species assumed): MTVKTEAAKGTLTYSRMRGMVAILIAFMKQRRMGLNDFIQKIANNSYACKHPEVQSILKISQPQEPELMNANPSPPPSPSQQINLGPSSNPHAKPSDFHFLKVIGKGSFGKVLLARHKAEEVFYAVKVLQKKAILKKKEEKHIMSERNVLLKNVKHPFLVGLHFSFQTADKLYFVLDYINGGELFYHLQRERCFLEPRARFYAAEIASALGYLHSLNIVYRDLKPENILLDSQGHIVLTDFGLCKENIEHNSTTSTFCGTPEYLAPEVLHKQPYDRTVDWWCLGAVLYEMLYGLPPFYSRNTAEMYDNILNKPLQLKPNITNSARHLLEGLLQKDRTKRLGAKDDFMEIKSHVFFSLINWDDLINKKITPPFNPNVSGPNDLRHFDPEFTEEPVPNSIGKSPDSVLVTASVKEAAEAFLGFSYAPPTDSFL
Chain of BRK (Q13882 whole entry, species assumed): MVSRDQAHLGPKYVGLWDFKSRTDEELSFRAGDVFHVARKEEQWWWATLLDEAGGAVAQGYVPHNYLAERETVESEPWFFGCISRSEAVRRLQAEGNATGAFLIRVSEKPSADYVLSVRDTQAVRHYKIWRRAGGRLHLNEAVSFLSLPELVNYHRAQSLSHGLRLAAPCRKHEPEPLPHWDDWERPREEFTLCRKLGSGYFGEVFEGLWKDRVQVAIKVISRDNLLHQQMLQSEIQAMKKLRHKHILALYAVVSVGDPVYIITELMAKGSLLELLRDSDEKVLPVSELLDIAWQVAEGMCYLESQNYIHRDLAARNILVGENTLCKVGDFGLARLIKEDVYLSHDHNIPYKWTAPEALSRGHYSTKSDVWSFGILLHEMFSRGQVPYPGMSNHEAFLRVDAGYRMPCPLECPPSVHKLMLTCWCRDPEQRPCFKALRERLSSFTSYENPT
Chain of MST4 (Q9P289 whole entry, species assumed): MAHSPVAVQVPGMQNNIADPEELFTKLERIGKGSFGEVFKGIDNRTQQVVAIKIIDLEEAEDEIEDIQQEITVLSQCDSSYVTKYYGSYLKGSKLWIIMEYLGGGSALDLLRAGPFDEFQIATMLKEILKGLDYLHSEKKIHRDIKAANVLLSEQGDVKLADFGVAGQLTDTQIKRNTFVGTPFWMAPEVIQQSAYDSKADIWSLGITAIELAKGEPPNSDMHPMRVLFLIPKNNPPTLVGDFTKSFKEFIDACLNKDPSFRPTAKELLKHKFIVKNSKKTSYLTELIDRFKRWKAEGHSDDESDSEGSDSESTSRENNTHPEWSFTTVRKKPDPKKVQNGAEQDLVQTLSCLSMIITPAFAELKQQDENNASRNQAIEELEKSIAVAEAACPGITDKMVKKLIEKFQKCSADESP
Chain of GSK3b (P49841 whole entry, species assumed): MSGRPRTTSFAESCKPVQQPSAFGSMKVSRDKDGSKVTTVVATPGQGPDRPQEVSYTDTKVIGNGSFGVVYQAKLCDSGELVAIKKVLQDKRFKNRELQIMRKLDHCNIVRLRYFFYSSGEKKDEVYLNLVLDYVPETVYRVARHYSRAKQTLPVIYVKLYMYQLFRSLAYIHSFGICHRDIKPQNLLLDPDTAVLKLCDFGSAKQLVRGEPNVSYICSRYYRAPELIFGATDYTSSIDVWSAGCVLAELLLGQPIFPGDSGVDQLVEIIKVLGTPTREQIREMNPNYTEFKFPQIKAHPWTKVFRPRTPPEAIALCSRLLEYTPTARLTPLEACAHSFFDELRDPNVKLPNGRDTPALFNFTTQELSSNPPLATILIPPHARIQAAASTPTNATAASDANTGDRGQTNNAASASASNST
Chain of ERK8 (Q8TD08 whole entry, species assumed): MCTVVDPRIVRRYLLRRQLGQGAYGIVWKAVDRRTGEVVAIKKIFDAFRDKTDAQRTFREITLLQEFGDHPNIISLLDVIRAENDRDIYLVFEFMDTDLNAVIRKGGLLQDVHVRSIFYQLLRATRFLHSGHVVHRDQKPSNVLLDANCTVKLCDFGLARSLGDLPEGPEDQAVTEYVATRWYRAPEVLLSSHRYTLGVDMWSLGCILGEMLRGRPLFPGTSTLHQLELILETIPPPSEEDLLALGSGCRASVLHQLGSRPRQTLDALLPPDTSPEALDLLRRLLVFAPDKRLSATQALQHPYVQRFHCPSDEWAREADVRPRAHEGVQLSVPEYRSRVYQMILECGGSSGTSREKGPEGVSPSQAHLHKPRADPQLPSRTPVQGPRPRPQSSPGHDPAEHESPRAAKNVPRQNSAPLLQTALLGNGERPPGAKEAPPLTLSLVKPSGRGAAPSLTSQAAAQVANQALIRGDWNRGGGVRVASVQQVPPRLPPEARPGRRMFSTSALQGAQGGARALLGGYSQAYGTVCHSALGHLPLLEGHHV
Chain of YES1 (P07947 whole entry, species assumed): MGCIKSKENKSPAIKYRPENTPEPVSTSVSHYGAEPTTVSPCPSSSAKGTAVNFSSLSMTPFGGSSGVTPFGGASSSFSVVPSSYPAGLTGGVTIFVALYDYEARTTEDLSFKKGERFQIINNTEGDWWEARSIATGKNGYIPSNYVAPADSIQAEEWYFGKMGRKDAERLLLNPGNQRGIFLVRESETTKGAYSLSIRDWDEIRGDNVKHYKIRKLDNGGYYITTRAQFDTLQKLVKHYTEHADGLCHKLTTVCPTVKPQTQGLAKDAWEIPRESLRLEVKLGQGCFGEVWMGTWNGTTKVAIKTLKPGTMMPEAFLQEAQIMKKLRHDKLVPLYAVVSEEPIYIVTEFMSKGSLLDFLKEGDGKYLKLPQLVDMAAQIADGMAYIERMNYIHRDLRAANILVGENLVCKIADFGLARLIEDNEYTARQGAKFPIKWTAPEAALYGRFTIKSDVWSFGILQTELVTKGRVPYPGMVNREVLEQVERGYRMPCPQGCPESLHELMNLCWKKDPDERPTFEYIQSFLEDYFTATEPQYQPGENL

## Cc1cc(C(C#N)c2ccc(Cl)cc2)c(Cl)cc1NC(=O)c1cc(Cl)ccc1O (stereo not drawn) [ZT-1a, 5-chloro-N-(5-chloro-4-((4-chlorophenyl)(cyano)methyl)-2-methylphenyl)-2-hydroxy-benzamide]
PLK1; 1 μM
  remaining activity at 1 µM: 72 ± 1%
PLK1; 10 μM
  remaining activity at 10 µM: 93 ± 21%
JNK3; 1 μM
  remaining activity at 1 µM: 63 ± 15%
JNK3; 10 μM
  remaining activity at 10 µM: 60 ± 10%
PAK6; 1 μM
  remaining activity at 1 µM: 69 ± 2%
PAK6; 10 μM
  remaining activity at 10 µM: 75 ± 4%
BRK; 1 μM
  remaining activity at 1 µM: 116 ± 12%
BRK; 10 μM
  remaining activity at 10 µM: 103 ± 2%
GCK; 1 μM
  remaining activity at 1 µM: 112 ± 4%
GCK; 10 μM
  remaining activity at 10 µM: 97 ± 3%
p38g MAPK; 1 μM
  remaining activity at 1 µM: 100 ± 11%
p38g MAPK; 10 μM
  remaining activity at 10 µM: 100 ± 6%
ROCK2; 1 μM
  remaining activity at 1 µM: 109 ± 6%
ROCK2; 10 μM
  remaining activity at 10 µM: 101 ± 10%
SGK1; 1 μM
  remaining activity at 1 µM: 73 ± 14%
SGK1; 10 μM
  remaining activity at 10 µM: 58 ± 5%
GSK3b; 1 μM
  remaining activity at 1 µM: 39 ± 4%
GSK3b; 10 μM
  remaining activity at 10 µM: 38 ± 12%
ERK8; 1 μM
  remaining activity at 1 µM: 104 ± 11%
ERK8; 10 μM
  remaining activity at 10 µM: 63 ± 3%
PKCa; 1 μM
  remaining activity at 1 µM: 97 ± 4%
PKCa; 10 μM
  remaining activity at 10 µM: 83 ± 2%
PKCγ; 1 μM
  remaining activity at 1 µM: 133 ± 11%
PKCγ; 10 μM
  remaining activity at 10 µM: 120 ± 8%
HIPK3; 1 μM
  remaining activity at 1 µM: 84 ± 3%
HIPK3; 10 μM
  remaining activity at 10 µM: 76 ± 2%
NUAK1; 1 μM
  remaining activity at 1 µM: 52 ± 7%
NUAK1; 10 μM
  remaining activity at 10 µM: 61 ± 16%
MST4; 1 μM
  remaining activity at 1 µM: 63 ± 10%
MST4; 10 μM
  remaining activity at 10 µM: 63%
STK33; 1 μM
  remaining activity at 1 µM: 114 ± 7%
STK33; 10 μM
  remaining activity at 10 µM: 100 ± 5%
MSK1; 1 μM
  remaining activity at 1 µM: 114 ± 6%
MSK1; 10 μM
  remaining activity at 10 µM: 112 ± 14%
MLK3; 1 μM
  remaining activity at 1 µM: 119 ± 11%
MLK3; 10 μM
  remaining activity at 10 µM: 114 ± 3%
TTK; 1 μM
  remaining activity at 1 µM: 104 ± 2%
TTK; 10 μM
  remaining activity at 10 µM: 91 ± 5%
PIM3; 1 μM
  remaining activity at 1 µM: 115 ± 12%
PIM3; 10 μM
  remaining activity at 10 µM: 99 ± 2%
EF2K; 1 μM
  remaining activity at 1 µM: 104 ± 13%
EF2K; 10 μM
  remaining activity at 10 µM: 56 ± 2%
PAK2; 1 μM
  remaining activity at 1 µM: 110 ± 4%
PAK2; 10 μM
  remaining activity at 10 µM: 93 ± 8%
MAP4K3; 1 μM
  remaining activity at 1 µM: 134 ± 5%
MAP4K3; 10 μM
  remaining activity at 10 µM: 88 ± 2%
MAPKAP-K2; 10 μM, read-out: inhibition of MAPKAP-K2 activity compared to DMSO control
  inhibition at 10 µM: 85 ± 7%
MAPKAP-K2; MAPKAP-K2, 1 μM, read-out: % residual kinase activity
  remaining activity at 1 µM: 91 ± 13%
MAPKAP-K2; MAPKAP-K2, 10 μM, read-out: % residual kinase activity
  remaining activity at 10 µM: 13 ± 7%
MKK2; 1 μM
  remaining activity at 1 µM: 126 ± 2%
MKK2; 10 μM
  remaining activity at 10 µM: 81 ± 27%
EPH-B4; 1 μM
  remaining activity at 1 µM: 100 ± 8%
EPH-B4; 10 μM
  remaining activity at 10 µM: 151 ± 33%
MKK6; 1 μM
  remaining activity at 1 µM: 102 ± 12%
MKK6; 10 μM
  remaining activity at 10 µM: 82 ± 16%
IR; 1 μM
  remaining activity at 1 µM: 105 ± 2%
IR; 10 μM
  remaining activity at 10 µM: 86 ± 13%
EPH-A2; 1 μM
  remaining activity at 1 µM: 89 ± 23%
EPH-A2; 10 μM
  remaining activity at 10 µM: 78 ± 11%
TSSK1; 1 μM
  remaining activity at 1 µM: 99 ± 2%
TSSK1; 10 μM
  remaining activity at 10 µM: 74 ± 6%
YES1; 1 μM
  remaining activity at 1 µM: 109 ± 3%
YES1; 10 μM
  remaining activity at 10 µM: 98 ± 7%
